Test results as given in PubChem BioAssay AID1259408 (Genetic Toxicology Data Bank (GENE-TOX), 2018).
Activity calls are given as the source filed them. The rule behind the calls is not given here.

Test system: GENE-TOX genotoxicity assays, various organisms and cells
Assay: GENE-TOX mutagenicity studies
[1] = Species/Cell Type: Drosophila melanogaster, Assay Type: Sex-linked recessive lethal gene mutation, Assay Code: SRL+, Evaluation Type: Evaluation A (Pre-1980)
[2] = Species/Cell Type: Neurospora crassa, Assay Type: Forward gene mutation, Assay Code: NEF+, Evaluation Type: Evaluation A (Pre-1980)
[3] = Species/Cell Type: Salmonella typhimurium (one or more of the five standard strains: TA98, TA100, TA1535, TA1537, and TA1538), Assay Type: Histidine reverse gene mutation, Ames assay, Assay Code: SAL+, Evaluation Type: Evaluation A (Pre-1980)
[4] = Species/Cell Type: Salmonella typhimurium (one or more of the five standard strains: TA98, TA100, TA1535, TA1537, and TA1538), Assay Type: Histidine reverse gene mutation, Ames assay, Assay Code: SALT, Evaluation Type: Evaluation A (Pre-1980)
[5] = Species/Cell Type: Drosophila melanogaster, Assay Type: Sex-linked recessive lethal gene mutation, Assay Code: SRLT, Evaluation Type: Evaluation A (Pre-1980)
[6] = Species/Cell Type: Mammalian polychromatic erythrocytes, Assay Type: Micronucleus test, chromosome aberrations, Assay Code: MNTT, Evaluation Type: Evaluation B (Post-1980)
[7] = Species/Cell Type: Salmonella typhimurium (one or more of the five standard strains: TA98, TA100, TA1535, TA1537, and TA1538), Assay Type: Histidine reverse gene mutation, Ames assay, Assay Code: SAL+*, Activation: With metabolic activation, Evaluation Type: Evaluation A (Pre-1980)

## CCN(N=O)C(N)=O
Species/Cell Type: Arabidopsis species, Assay Type: Gene mutation, Assay Code: ARM+D, Dose Response: With dose response, Evaluation Type: Evaluation A (Pre-1980)
  mutagenic call: active; positive
Species/Cell Type: Chinese hamster ovary (CHO) cells, Assay Type: Forward gene mutation at the HPRT locus, Assay Code: CHO+D, Dose Response: With dose response, Evaluation Type: Evaluation A (Pre-1980)
  mutagenic call: active; positive
Species/Cell Type: Drosophila melanogaster, Assay Type: Aneuploidy, partial sex chromosome loss, chromosome aberrations, Assay Code: DAP+M, Evaluation Type: Evaluation A (Pre-1980)
  mutagenic call: active; positive
Species/Cell Type: Drosophila melanogaster, Assay Type: Aneuploidy, whole sex chromosome loss, chromosome aberrations, Assay Code: DAC+M, Evaluation Type: Evaluation A (Pre-1980)
  mutagenic call: active; positive
[1]
  mutagenic call: active; positive
Species/Cell Type: Drosophila melanogaster, Sex: Male, Assay Type: Heritable translocation test, chromosome aberrations, Assay Code: DHTT, Evaluation Type: Evaluation A (Pre-1980)
  mutagenic call: no conclusion
Species/Cell Type: Escherichia coli polA (W3119 vs P3478), Assay Type: Rec-assay, DNA effects (bacterial DNA repair), Assay Code: RE1+, Evaluation Type: Evaluation A (Pre-1980)
  mutagenic call: active; positive
Species/Cell Type: Fischer rat embryo (RLV/1706) cells, Assay Type: Cell transformation, viral enhanced, Assay Code: CTR+, Evaluation Type: Evaluation A (Pre-1980)
  mutagenic call: active; positive
Species/Cell Type: Hordeum vulgare (barley), Assay Type: Chromosome aberrations, Assay Code: HOC+, Evaluation Type: Evaluation A (Pre-1980)
  mutagenic call: active; positive
Species/Cell Type: Hordeum vulgare (barley), Assay Type: Gene mutation, Assay Code: HOM+, Evaluation Type: Evaluation A (Pre-1980)
  mutagenic call: active; positive
Species/Cell Type: Human diploid fibroblasts, Assay Type: Unscheduled DNA synthesis (UDS) in vitro, DNA effects, Assay Code: UDH+, Evaluation Type: Evaluation A (Pre-1980)
  mutagenic call: active; positive
Species/Cell Type: Human lymphocytes or leukocytes, Assay Type: Chromosome aberrations in vitro, Assay Code: CY7+D, Dose Response: With dose response, Evaluation Type: Evaluation A (Pre-1980)
  mutagenic call: active; positive
Species/Cell Type: Human, Assay Type: Sister-chromatid exchange (SCE) in vitro, Assay Code: SC1+, Evaluation Type: Evaluation A (Pre-1980)
  mutagenic call: active; positive
Species/Cell Type: Mammalian polychromatic erythrocytes, Assay Type: Micronucleus test, chromosome aberrations, Assay Code: MNT+, Evaluation Type: Evaluation B (Post-1980)
  mutagenic call: active; positive
Species/Cell Type: Mouse germ cells, Sex: Male, Assay Type: Unscheduled DNA synthesis (UDS) in vivo, DNA effects, Assay Code: UDT+, Evaluation Type: Evaluation A (Pre-1980)
  mutagenic call: active; positive
Species/Cell Type: Mouse, Sex: Female, Assay Type: Spot test, gene mutation, Assay Code: MST+, Evaluation Type: Evaluation A (Pre-1980)
  mutagenic call: active; positive
Species/Cell Type: Mouse, Sex: Male, Assay Type: Specific locus test, gene mutation, Assay Code: SLT+, Evaluation Type: Evaluation A (Pre-1980)
  mutagenic call: active; positive
[2]
  mutagenic call: active; positive
Species/Cell Type: Nonhuman bone marrow, Assay Type: Chromosome aberrations, in vivo, Assay Code: CY#+, Evaluation Type: Evaluation A (Pre-1980)
  mutagenic call: active; positive
Species/Cell Type: Nonhuman, Assay Type: In vivo carcinogenicity studies, Assay Code: CCG+, Evaluation Type: Evaluation A (Pre-1980)
  call: active; positive
Species/Cell Type: Nonhuman, Assay Type: Sister-chromatid exchange (SCE) in vitro, Assay Code: SC2+D, Dose Response: With dose response, Evaluation Type: Evaluation A (Pre-1980)
  mutagenic call: active; positive
Species/Cell Type: Nonhuman, Assay Type: Sister-chromatid exchange (SCE) in vivo, Assay Code: SC3+D, Dose Response: With dose response, Evaluation Type: Evaluation B (Post-1980)
  mutagenic call: active; positive
Species/Cell Type: Saccharomyces cerevisiae, Assay Type: Mitotic recombination or gene conversion, Assay Code: YEC+, Evaluation Type: Evaluation A (Pre-1980)
  mutagenic call: active; positive
Species/Cell Type: Saccharomyces cerevisiae, Assay Type: Mitotic recombination or gene conversion, Assay Code: YEH+, Evaluation Type: Evaluation A (Pre-1980)
  mutagenic call: active; positive
[3]
  mutagenic call: active; positive
Species/Cell Type: Salmonella typhimurium, Assay Type: Forward and reverse gene mutation, host-mediated assay, Assay Code: HMA+, Evaluation Type: Evaluation A (Pre-1980)
  mutagenic call: active; positive
Species/Cell Type: Syrian hamster embryo (SHE) cells, Assay Type: Cell transformation, clonal assay, Assay Code: CTCT, Evaluation Type: Evaluation A (Pre-1980)
  mutagenic call: no conclusion
Species/Cell Type: Vicia faba, Assay Type: Chromosome aberrations, Assay Code: VIC+, Evaluation Type: Evaluation A (Pre-1980)
  mutagenic call: active; positive
Species/Cell Type: Zea mays (corn), Assay Type: Gene mutation, Assay Code: ZEM+D, Dose Response: With dose response, Evaluation Type: Evaluation A (Pre-1980)
  mutagenic call: active; positive

## NC(N)=O
Species/Cell Type: Allium cepa, Assay Type: Chromosome aberrations, Assay Code: ALC+D, Dose Response: With dose response, Evaluation Type: Evaluation A (Pre-1980)
  mutagenic call: active; positive
Species/Cell Type: Escherichia coli polA (W3119 vs P3478), Assay Type: Rec-assay, DNA effects (bacterial DNA repair), Assay Code: RE1T, Evaluation Type: Evaluation A (Pre-1980)
  mutagenic call: no conclusion
Species/Cell Type: Glycine max (soybean), Assay Type: Gene mutation, Assay Code: GLM-, Evaluation Type: Evaluation A (Pre-1980)
  mutagenic call: inactive; negative
Species/Cell Type: Human lymphocytes or leukocytes, Assay Type: Chromosome aberrations in vitro, Assay Code: CY7+, Evaluation Type: Evaluation A (Pre-1980)
  mutagenic call: active; positive
Species/Cell Type: Mouse, Sex: Male, Assay Type: Sperm morphology, Assay Code: SPI-, Evaluation Type: Evaluation A (Pre-1980)
  mutagenic call: inactive; negative
Species/Cell Type: Plant, Assay Type: Micronucleus test, chromosome aberrations, Assay Code: MNP+, Evaluation Type: Evaluation A (Pre-1980)
  mutagenic call: active; positive

## C/C(=N\O)c1ccc([N+](=O)[O-])s1
[4]
  mutagenic call: no conclusion

## O=C=Nc1ccc(Nc2ccc([N+](=O)[O-])cc2)cc1
[4]
  mutagenic call: no conclusion

## ON=C1CCCCC1
[5]
  mutagenic call: no conclusion

## CCC[N+](=O)[O-]
[6]
  mutagenic call: no conclusion

## CCN(CCCO)N=O
[7]
  mutagenic call: active; positive

## COc1ccccc1[N+](=O)[O-]
[4]
  mutagenic call: no conclusion

## c1ccc2c(c1)CCc1cc3ccc4c(c3cc1-2)CCCC4
[7]
  mutagenic call: active; positive

## OCn1cnc2ccccc21
Species/Cell Type: Arabidopsis species, Assay Type: Gene mutation, Assay Code: ARM-, Evaluation Type: Evaluation A (Pre-1980)
  mutagenic call: inactive; negative

## CN(C)c1ccc(C#N)cc1
[6]
  mutagenic call: no conclusion

## Cc1ccc2cc3c(ccc4cc(C)ccc43)cc2c1
[5]
  mutagenic call: no conclusion

## O[C@@H]1C=Cc2cc3ccc4ccccc4c3cc2[C@H]1O
Species/Cell Type: Nonhuman, Assay Type: Sister-chromatid exchange (SCE) in vitro, Assay Code: SC2+D, Dose Response: With dose response, Evaluation Type: Evaluation B (Post-1980)
  mutagenic call: active; positive
[4]
  mutagenic call: no conclusion

## Nc1c(N=Nc2ccc([N+](=O)[O-])cc2)c(S(=O)(=O)O)cc2cc(S(=O)(=O)O)c(N=Nc3ccccc3)c(O)c12
Species/Cell Type: Bacillus subtilis (H17 vs M45), Assay Type: Rec-assay, spot test, DNA effects (bacterial DNA repair), Assay Code: REWT, Evaluation Type: Evaluation A (Pre-1980)
  mutagenic call: no conclusion

## CS(=O)(=O)OC[C@@H](O)[C@H](O)COS(C)(=O)=O
Species/Cell Type: Allium cepa, Assay Type: Chromosome aberrations, Assay Code: ALC+, Evaluation Type: Evaluation A (Pre-1980)
  mutagenic call: active; positive
Species/Cell Type: Arabidopsis species, Assay Type: Gene mutation, Assay Code: ARM+, Evaluation Type: Evaluation A (Pre-1980)
  mutagenic call: active; positive

## ONc1ncnc2nc[nH]c12
[2]
  mutagenic call: active; positive

## Cc1ccc2ccc3c4ccccc4c(C)c4ccc1c2c43
[1]
  mutagenic call: active; positive

## C/C=C/C=C/C(=O)O
Species/Cell Type: Nonhuman, Assay Type: Sister-chromatid exchange (SCE) in vitro, Assay Code: SC2T, Evaluation Type: Evaluation A (Pre-1980)
  mutagenic call: no conclusion

## OC1CCCCC1
Species/Cell Type: Allium cepa, Assay Type: Chromosome aberrations, Assay Code: ALC-, Evaluation Type: Evaluation A (Pre-1980)
  mutagenic call: inactive; negative

## [Cl][Ti]([Cl])[Cl]
Species/Cell Type: Nonhuman, Assay Type: Sister-chromatid exchange (SCE) in vitro, Assay Code: SC2-, Evaluation Type: Evaluation B (Post-1980)
  mutagenic call: inactive; negative

## O=C(Nc1nc(-c2ccc([N+](=O)[O-])o2)cs1)C(F)(F)F
Species/Cell Type: Escherichia coli WP2, Assay Type: Tryptophan reverse gene mutation, Assay Code: WP2+, Evaluation Type: Evaluation A (Pre-1980)
  mutagenic call: active; positive
Species/Cell Type: Escherichia coli WP2 UVRA, Assay Type: Tryptophan reverse gene mutation, Assay Code: WPU-, Evaluation Type: Evaluation A (Pre-1980)
  mutagenic call: inactive; negative
[3]
  mutagenic call: active; positive

## CCN(CC)CC(O)CNc1c2ccc(Cl)cc2nc2ccc(OC)cc12 (stereo not given)
Species/Cell Type: Mammalian polychromatic erythrocytes, Assay Type: Micronucleus test, chromosome aberrations, Assay Code: MNT+U, Dose Response: Unconfirmed positive response, Evaluation Type: Evaluation A (Pre-1980)
  mutagenic call: active; positive

## N#Cc1c(Cl)cccc1Cl
Species/Cell Type: Saccharomyces cerevisiae, Assay Type: Mitotic recombination or gene conversion, Assay Code: YEC-, Evaluation Type: Evaluation A (Pre-1980)
  mutagenic call: inactive; negative
